Test results as given in US10526389B2, “Peptides and combinations of peptides for use in immunotherapy against lung cancer, including NSCLC and other cancers” (Immatics Biotechnologies GmbH, priority 2015, dated 2020).

Tests used:
CD8+ T cells [1] = assay: In vitro immunogenicity of HLA-A*24 peptides (CD8+ T-cell priming with aAPCs, multimer staining); format: cell-based, human
Experimental: (§1) In order to obtain information regarding the immunogenicity of the TUMAPs of the present invention, the inventors performed investigations using an in vitro T-cell priming assay based on repeated stimulations of CD8+ T cells with artificial antigen presenting cells (aAPCs) loaded with peptide/MHC complexes and anti-CD28 antibody.
(§2) Generation of pMHC/anti-CD28 coated beads, T-cell stimulations and readout was performed in a highly defined in vitro system using four different pMHC molecules per stimulation condition and 8 different pMHC molecules per readout condition.
(§3) The purified co-stimulatory mouse IgG2a anti human CD28 Ab 9.3 (Jung et al., 1987) was chemically biotinylated using Sulfo-N-hydroxysuccinimidobiotin as recommended by the manufacturer (Perbio, Bonn, Germany). Beads used were 5.6 μm diameter streptavidin coated polystyrene particles (Bangs Laboratories, Illinois, USA).
(§4) 800.000 beads/200 μl were coated in 96-well plates in the presence of 4×12.5 ng different biotin-pMHC, washed and 600 ng biotin anti-CD28 were added subsequently in a volume of 200 μl. Stimulations were initiated in 96-well plates by co-incubating 1×10^6 CD8+ T cells with 2×10^5 washed coated beads in 200 μl TCM supplemented with 5 ng/ml IL-12 (PromoCell) for 3 days at 37° C. Half of the medium was then exchanged by fresh TCM supplemented with 80 U/ml IL-2 and incubating was continued for 4 days at 37° C. This stimulation cycle was performed for a total of three times. For the pMHC multimer readout using 8 different pMHC molecules per condition, a two-dimensional combinatorial coding approach was used as previously described (Andersen et al., 2012) with minor modifications encompassing coupling to 5 different fluorochromes. Finally, multimeric analyses were performed by staining the cells with Live/dead near IR dye (Invitrogen, Karlsruhe, Germany), CD8-FITC antibody clone SK1 (BD, Heidelberg, Germany) and fluorescent pMHC multimers. For analysis, a BD LSRII SORP cytometer equipped with appropriate lasers and filters was used. Peptide specific cells were calculated as percentage of total CD8+ cells. Evaluation of multimeric analysis was done using the FlowJo software (Tree Star, Oregon, USA). In vitro priming of specific multimer+CD8+ lymphocytes was detected by comparing to negative control stimulations.
Exemplary flow cytometry results after TUMAP-specific multimer staining for 3 peptides of the invention are shown in FIGS. 3A-3E together with corresponding negative controls.

CD8+ T cells [2] = assay: In vitro immunogenicity of HLA-A*02 peptides (CD8+ T-cell priming with aAPCs, multimer staining); format: cell-based, human
Description: as §1
In order to perform in vitro stimulations by artificial antigen presenting cells loaded with peptide-MHC complex (pMHC) and anti-CD28 antibody, the inventors first isolated CD8+ T cells from fresh HLA-A*02 leukapheresis products via positive selection using CD8 microbeads (Miltenyi Biotec, Bergisch-Gladbach, Germany) of healthy donors obtained from the University clinics Mannheim, Germany, after informed consent.
PBMCs and isolated CD8+ lymphocytes were incubated in T-cell medium (TCM) until use consisting of RPMI-Glutamax (Invitrogen, Karlsruhe, Germany) supplemented with 10% heat inactivated human AB serum (PAN-Biotech, Aidenbach, Germany), 100 U/ml Penicillin/100 μg/ml Streptomycin (Cambrex, Cologne, Germany), 1 mM sodium pyruvate (CC Pro, Oberdorla, Germany), 20 μg/ml Gentamycin (Cambrex). 2.5 ng/ml IL-7 (PromoCell, Heidelberg, Germany) and 10 U/ml IL-2 (Novartis Pharma, Nurnberg, Germany) were also added to the TCM at this step.
as §2, §3, §4

Substance | in vitro immunogenicity: donors (CD8+ T cells [1]) | in vitro immunogenicity: wells (CD8+ T cells [1]) | in vitro immunogenicity: donors (CD8+ T cells [2]) | in vitro immunogenicity: wells (CD8+ T cells [2])
PPTC-001 (HYFNTPFQL; listed as Homo sapiens) | ++++ (>= 70% = ++++) | ++ (20%-49% = ++) |  | 
OLFML2B-002 (YYYGNTLVEF; listed as Homo sapiens) | ++ (20%-49% = ++) | + (<20% = +) |  | 
KYLEKYYNL (listed as Homo sapiens) [SEQ ID No. 30] | ++++ (>= 70% = ++++) | ++ (20%-49% = ++) |  | 
LAPTM5-001 (SYMEVPTYLNF; listed as Homo sapiens) | ++ (20%-49% = ++) | + (<20% = +) |  | 
ZBED5-001 (AYKDKDISFF; listed as Homo sapiens) | ++++ (>= 70% = ++++) | + (<20% = +) |  | 
TRPM2-001 (VYHSYLTIF; listed as Homo sapiens) | ++++ (>= 70% = ++++) | ++ (20%-49% = ++) |  | 
SAMD9L-001 (IYQRWKDLL; listed as Homo sapiens) | +++ (50%-69% = +++) | + (<20% = +) |  | 
DDX5-007 (NYTNGSFGSNF; listed as Homo sapiens) | + (<20% = +) | + (<20% = +) |  | 
AHD-001 (EYSDVLAKLAF; listed as Homo sapiens) | +++ (50%-69% = +++) | + (<20% = +) |  | 
VYTSWQIPQKF (listed as Homo sapiens) [SEQ ID No. 23] | + (<20% = +) | + (<20% = +) |  | 
PVRL1-001 (IYNPSMGVSVL; listed as Homo sapiens) | ++ (20%-49% = ++) | + (<20% = +) |  | 
IQGAP1-001 (TYAALNSKATF; listed as Homo sapiens) | + (<20% = +) | + (<20% = +) |  | 
NUP153-001 (VYFKPSLTPSGEF; listed as Homo sapiens) | + (<20% = +) | + (<20% = +) |  | 
TYNPEIYVI (listed as Homo sapiens) [SEQ ID No. 35] | ++++ (>= 70% = ++++) | ++ (20%-49% = ++) |  | 
DCSTA-001 (KYIEAIQWI; listed as Homo sapiens) | ++++ (>= 70% = ++++) | ++ (20%-49% = ++) |  | 
COL6A3-013 (EYQPEMLEKF; listed as Homo sapiens) | + (<20% = +) | + (<20% = +) |  | 
YYTKGFALLNF (listed as Homo sapiens) [SEQ ID No. 29] | +++ (50%-69% = +++) | + (<20% = +) |  | 
CDK4-001 (TLWYRAPEV; listed as Homo sapiens) |  |  | ++++ (>= 70% = ++++) | ++++ (>= 70% = ++++)
NLIEKSIYL (listed as Homo sapiens) [SEQ ID No. 141] |  |  | ++++ (>= 70% = ++++) | + (<20% = +)
CERC-001 (KLSWDLIYL; listed as Homo sapiens) |  |  | ++++ (>= 70% = ++++) | +++ (50%-69% = +++)
SMYD3-001 (SLIEDLILL; listed as Homo sapiens) |  |  | ++ (20%-49% = ++) | + (<20% = +)
ALTSTLISV (listed as Homo sapiens) [SEQ ID No. 5] |  |  | ++++ (>= 70% = ++++) | + (<20% = +)
RLDDLKMTV (listed as Homo sapiens) [SEQ ID No. 125] |  |  | ++++ (>= 70% = ++++) | + (<20% = +)
SNRNP20-001 (GLIEIISNA; listed as Homo sapiens) |  |  | ++++ (>= 70% = ++++) | ++ (20%-49% = ++)

Substance | in vitro immunogenicity: donors (CD8+ T cells [1]) | in vitro immunogenicity: wells (CD8+ T cells [1]) | in vitro immunogenicity: donors (CD8+ T cells [2]) | in vitro immunogenicity: wells (CD8+ T cells [2])
FZD-001 (VLAPLFVYL; listed as Homo sapiens) |  |  | ++++ (>= 70% = ++++) | +++ (50%-69% = +++)
MCM5-001 (ALSGTLSGV; listed as Homo sapiens) |  |  | ++++ (>= 70% = ++++) | + (<20% = +)
COL6A3-002 (FLLDGSANV; listed as Homo sapiens) |  |  | ++++ (>= 70% = ++++) | ++ (20%-49% = ++)
FLIPYAIML (listed as Homo sapiens) [SEQ ID No. 2] |  |  | ++++ (>= 70% = ++++) | + (<20% = +)
KIFDEILVNA (listed as Homo sapiens) [SEQ ID No. 144] |  |  | ++ (20%-49% = ++) | + (<20% = +)
KIQEMQHFL (listed as Homo sapiens) [SEQ ID No. 116] |  |  | ++++ (>= 70% = ++++) | + (<20% = +)
UBE2S-001 (ALNEEAGRLLL; listed as Homo sapiens) |  |  | ++++ (>= 70% = ++++) | + (<20% = +)
VLLPVEVATHYL (listed as Homo sapiens) [SEQ ID No. 142] |  |  | ++ (20%-49% = ++) | + (<20% = +)
PLT-001 (ALFGALFLA; listed as Homo sapiens) |  |  | ++ (20%-49% = ++) | + (<20% = +)
DKC-001 (ALFQRPPLI; listed as Homo sapiens) |  |  | ++++ (>= 70% = ++++) | ++ (20%-49% = ++)
RAD54B-001 (SLYKGLLSV; listed as Homo sapiens) |  |  | ++++ (>= 70% = ++++) | ++ (20%-49% = ++)
ALLNILSEV (listed as Homo sapiens) [SEQ ID No. 8] |  |  | ++++ (>= 70% = ++++) | ++ (20%-49% = ++)
KILEDVVGV (listed as Homo sapiens) [SEQ ID No. 130] |  |  | ++++ (>= 70% = ++++) | ++ (20%-49% = ++)
DIO2-001 (ALYDSVILL; listed as Homo sapiens) |  |  | + (<20% = +) | + (<20% = +)
TLYPHTSQV (listed as Homo sapiens) [SEQ ID No. 140] |  |  | ++++ (>= 70% = ++++) | ++ (20%-49% = ++)
VLTSDSPAL (listed as Homo sapiens) [SEQ ID No. 19] |  |  | ++++ (>= 70% = ++++) | + (<20% = +)
ABCA13-001 (ILFEINPKL) |  |  | ++++ (>= 70% = ++++) | + (<20% = +)
IVDRTTTVV (listed as Homo sapiens) [SEQ ID No. 12] |  |  | ++++ (>= 70% = ++++) | ++++ (>= 70% = ++++)
SILEHQIQV (listed as Homo sapiens) [SEQ ID No. 106] |  |  | + (<20% = +) | + (<20% = +)
LIFDLGGGTFDV (listed as Homo sapiens) [SEQ ID No. 16] |  |  | +++ (50%-69% = +++) | + (<20% = +)
GBP5-001 (SLLSELQHA; listed as Homo sapiens) |  |  | ++ (20%-49% = ++) | + (<20% = +)
ADAM8-001 (KLLTEVHAA; listed as Homo sapiens) |  |  | ++++ (>= 70% = ++++) | + (<20% = +)
ATP-001 (SLHFLILYV; listed as Homo sapiens) |  |  | ++++ (>= 70% = ++++) | ++++ (>= 70% = ++++)
